According to patent US9233092B2, “Compositions and methods for inhibiting gastric acid secretion using derivatives of small dicarboxylic acids in combination with PPI” (Vecta, Ltd., priority 2006, dated 2016):
“Also recorded” adds a separate entry of the source.

Assays:
gastric acid output = details: humans; Teyssen et al., J. Clin Invest. 1999; cited from earlier work
gastric acid secretion [1] = assay: Conscious pylorus-ligated rats: effect of succinates on the activity of pantoprazole on gastric acid secretion; type: in vivo; details: oral gavage, succinate (SA 14.88 mg/kg or dmS 17.65 mg/kg) given 30 min prior to pantoprazole, FIG. 2
Procedure: To further study the delayed or sustained enhancement effect of dimethyl ester of succinic acid on the activity of pantoprazole, an experimental model of conscious pylorus-ligated rats was used. This experimental model permits the analysis of the effect of drugs on gastric acid secretion in conscious animals and avoids the effect of anesthesia on gastric acid secretion. Pantoprazole alone ([…]) or in combination with succinic acid (SA, 14.88 mg/kg) or dimethyl ester of succinic acid (dmS, 17.65 mg/kg) were administered by oral gavage. The succinates were administered 30 min prior to the administration of pantoprazole in order to test the sustained or delayed effect of dimethyl ester of succinic acid compared to the non-derivatized succinic acid. 120 min post succinates administration, the animals were anesthetized using anesthetic gas machine for a short period (5 minutes) that is sufficient to perform the pylorus ligation procedure and to close the abdomen. The animals were then placed back into its cage for additional 110 min after which the animals were sacrificed. The ligature was placed around the esophagus, the stomach removed and gastric content was collected. Following centrifugation, the gastric output and the pH of the gastric juice samples was determined. Data is presented as mean±SEM of gastric output. The number of animals is 6-7 in each experimental group.

gastric acid secretion [2] = assay: Stimulation of gastric acid secretion after oral administration, pylorus ligated 60 min after dosing, acid output by NaOH titration; type: in vivo; details: rats, per os, SA 14.88 mg/kg, mS 16.65 mg/kg, dmS 17.65 mg/kg, gastric juice collected 30 min later
Procedure: Rats were administered (per os) with succinic acid (SA, 14.88 mg/kg), monomethylester of succinic acid (mS, 16.65 mg/kg) or dimethyl ester of succinic acid (dmS, 17.65 mg/kg) using gavage. 60 minutes later the rats were anesthetized with ketamine/domitor and the pylorus was ligated. Following additional 30 min, gastric juice was collected from the gastric lumen. Acid output was determined by titration with NaOH. Total acid output expressed in mEq HCl was calculated by multiplying the sample volume by the acid concentration. Results are expressed as means±SEM of 8 animals from each experimental group.

| Compound | stimulation of gastric acid output (gastric acid output) | enhancement of the effect of pantoprazole (PPI) on gastric acid output (gastric acid secretion [1]) | gastric acid output (total acid output) (gastric acid secretion [2]; FIG. 1) | gastric acid output (total acid output) (gastric acid secretion [2]; FIG. 1, listed as succinic acid dimethyl ester) |
| --- | --- | --- | --- | --- |
| O=C(O)/C=C\C(=O)O [Maleic acid] | powerful stimulants of gastric acid output |  |  |  |
| O=C(O)CCC(=O)O [SA, succinic acid, reference compound] | powerful stimulants of gastric acid output | only dimethyl ester of succinic acid was capable of enhancing the effect of PPI | did not show an effect |  |
| COC(=O)CCC(=O)OC [dmS, dimethyl ester of succinic acid] |  | capable of enhancing the activity of pantoprazole on gastric acid secretion; also recorded: capable of enhancing the effect of PPI on gastric acid output | effective in enhancing gastric output | capable of enhancing gastric acid output even after 60 minutes from dosing |
| COC(=O)CCC(=O)O [mS, monomethylester of succinic acid] |  |  | effective in enhancing gastric output |  |
